In brackets after ≈: the same amount, converted by molar mass.

Common to all, as to type: functional
One experiment deals with Staphylococcus aureus. The experiment can be described thus: Antibacterial activity against Staphylococcus aureus SK&F 23390 assessed as […].
The subject of another experiment is Enterococcus faecalis. The experiment can be described thus: Antibacterial activity against Streptococcus faecalis HH 34358 assessed as […].
The subject of experiment [1] is Escherichia coli. The experiment can be described thus: Antibacterial activity against Escherichia coli SK&F 12140 assessed as […].
For experiment [2], the system named is Escherichia coli. The experiment can be described thus: Antibacterial activity against Escherichia coli HH 33779 assessed as […].
For another experiment, the system named is Klebsiella pneumoniae. The experiment can be described thus: Antibacterial activity against Klebsiella pneumoniae SK&F 1200 assessed as […].
The test system of a further experiment is Serratia marcescens. The experiment in a line: Antibacterial activity against Serratia marcescens ATCC 13880 assessed as […].
For the next experiment, the system named is Morganella morganii. The experiment in a line: Antibacterial activity against Proteus morganii 179 assessed as […].
A further experiment has as its system Klebsiella aerogenes. The experiment can be described thus: Antibacterial activity against Enterobacter aerogenes ATCC 13048 assessed as […].

As a reminder, the MIC is the lowest concentration that inhibits growth of the organism. Consider `CC(=O)OCC1=C(C(=O)O)N2C(=O)[C@@H](NC(=O)Cc3cccs3)[C@H]2SC1` [CEPHALOTHIN], for which the MIC in the experiment on Staphylococcus aureus was 0.2 µM (≈ 0.0793 µg/mL); with Enterococcus faecalis it was 14 µM (≈ 5.55 µg/mL); with Escherichia coli [1] it was 7 µM (≈ 2.78 µg/mL); in the experiment on Escherichia coli [2], 7 µM (≈ 2.78 µg/mL); with Klebsiella pneumoniae, 3.6 µM (≈ 1.43 µg/mL); with Serratia marcescens it was over 453 µM. Besides, the minimum inhibitory concentration (MIC) in the experiment on Morganella morganii was over 453 µM; with Klebsiella aerogenes, 14 µM (≈ 5.55 µg/mL).
